Results taken from patent publication US4835163A, “N-alkoxyalkyl derivatives of quinolone carboxamides” (Sanofi, priority 1986, dated 1989).

Assays:
[1] = anticonvulsive activity, test with pentetrazol; assay type: in vivo, mice (male CD1); conditions: Mus musculus, 0.5 h; oral route, 30 minutes before pentetrazol 135 mg/kg s.c.; dose which avoids attacks in half of the animals; read-out: DE50 (the source's name)
Experimental: This activity has been studied by the test with pentetrazol, according to the method of EVERETT and RICHARDS (J. Pharm. Exp. Ther. 1944, 81, 402-407).
Thus the DE50 is determined, which is the dose which avoids the appearance of attacks in half of the animals. The DE 50 has been calculated by the method of D. K. Finney (Probit analysis; University Press; Cambridge; 1971).

[2] = antagonist activity vis a vis the hypnotic effects of benzodiazepines; conditions: 25 mg/kg i.p., 15 minutes before diazepam 6 mg/kg i.p.; control 97 ± 12; * P < 0.05 vs control
[3] = locomotive activity, photoelectric cell actimeter; assay type: in vivo, mice (male CD1); conditions: 32 mg/kg O.R.; untreated mice 553 ± 200; P <0.05 (Student test)
Experimental: The mice (male CD1 20-25 g) are placed in groups of three in the cages of a photoelectric cell actimeter. After 30 minutes of getting used to the enclosure, the animas are treated by oral route with the product under test in suspension in carboxymethylcellulose at 1%. A control set of untreated mice receive only the vehicle. Each set contains 12 groups of 3 mice. The movement activity responses are recorded for 80 minutes.

[4] = acute oral toxicity (LD 50); conditions: mouse, in vivo, mice
Description: The components of the invention benefit from a good tolerance and a weak toxicity. […] 1, in mice.

SMILES	ED50 [1]	Length of sleep [2]	Movement Activity for 80 min [3]	LD50 [4]
CCCC(CCC)C(=O)[O-].[Na+] [sodium valproate, reference compound]	200 mg/kg	–	–	–
CCC1(c2ccccc2)C(=O)NC(=O)NC1=O [phenobarbital, reference compound]	10 mg/kg	–	–	–
COCn1cc(C(=O)NCC(C)C)c(=O)c2ccccc21 [derivative no. 5, 1-methoxymethyl-4-oxo-1,4-dihydro-quinoline 3-(N-isobutyl)carboxamide]	46 mg/kg	62 ± 10 min	–	–
CCNC(=O)c1cn(COC)c2ccccc2c1=O [derivative no. 3, 1-methoxymethyl-4-oxo-1,4-dihydro-quinoline 3-(N-ethyl)carboxamide]	–	9 ± 4 min	–	–
CCCNC(=O)c1cn(COC)c2c(Cl)cccc2c1=O [derivative no. 11, 1-methoxymethyl-4-oxo-8-chloro-1,4-dihydro-quinoline 3-(N-propyl)carboxamide]	21 mg/kg	–	–	–
COCn1cc(C(=O)NC2CCCC2)c(=O)c2ccccc21 [derivative no. 8, 1-methoxymethyl-4-oxo-1,4-dihydro-quinoline 3-(N-cyclopentyl)carboxamide]	108 mg/kg	–	–	–
CCCNC(=O)c1cn(COC)c2c(F)cccc2c1=O [derivative no. 10, 1-methoxymethyl-4-oxo-8-fluoro-1,4-dihydro-quinoline 3-(N-propyl)carboxamide]	53 mg/kg	–	–	–
CCCNC(=O)c1cn(CCOCC)c2ccccc2c1=O [derivative no. 14, 1-ethoxyethyl-4-oxo-1,4-dihydro-quinoline 3-(N-propyl)carboxamide]	79 mg/kg	–	–	–
CCCNC(=O)c1cn(COC)c2ccc(F)cc2c1=O [derivative no. 9, 1-methoxymethyl-4-oxo-6-fluoro-1,4-dihydro-quinoline 3-(N-propyl)carboxamide]	62 mg/kg	22 ± 8 min	–	–
CCCNC(=O)c1cn(COCC)c2ccccc2c1=O [derivative no. 13, 1-ethoxymethyl-4-oxo-1,4-dihydro-quinoline 3-(N-propyl)carboxamide]	75 mg/kg	–	–	–
COCn1cc(C(=O)NC2CC2)c(=O)c2ccccc21 [derivative no. 7, 1-methoxymethyl-4-oxo-1,4-dihydro-quinoline 3-(N-cyclopropyl)carboxamide]	67 mg/kg	32 ± 11 min	–	–
CCCNC(=O)c1cn(CCOC)c2ccccc2c1=O [derivative no. 15, 1-methoxyethyl-4-oxo-1,4-dihydro-quinoline 3-(N-propyl)carboxamide]	50 mg/kg	–	–	–
CCCNC(=O)c1cn(COC)c2ccccc2c1=O [derivative no. 1, 1-methoxymethyl-4-oxo-1,4-dihydro-quinoline 3-(N-propyl)carboxamide]	55 mg/kg	39 ± 20 min	1842 ± 470	1100 mg/kg
CCCNC(=O)c1cn(COC)c2ccc(OC)cc2c1=O [derivative no. 12, 1-methoxymethyl-4-oxo-6-methoxy-1,4-dihydro-quinoline 3-(N-propyl)carboxamide]	65 mg/kg	–	–	–
